Patent publication US12643903B2, “Bifunctional compounds for degradation of EGFR and related methods of use” (BeiGene, Ltd., priority 2020, dated 2026)

Tests used:
Type in all cases: cell-based
Details in all cases: 16 h treatment, EGFR degradation by HTRF
[1] = target: T1, EGFR (Homo sapiens, UniProt P00533, L858R/T790M); experiment: Cell Degradation 1: EGFR degradation in H1975 cells, HTRF assay
T1 construct: endogenous in cells; host or cells: H1975
Procedure, shortened: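 EGFR levels were read by HTRF (337 nm excitation, 665 and 620 nm emission) in lysates of H1975 cells exposed to compound for 16 h, with antibodies incubated overnight at room temperature. Fitting percent inhibition versus concentration to a Hill equation gave DC50.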

[2] = target: T2, EGFR (Homo sapiens, UniProt P00533, DEL746-750); experiment: Cell Degradation 2: EGFR degradation in HCC827 cells, HTRF assay
T2 construct: endogenous in cells; host or cells: HCC827
Procedure, shortened: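 DC50 values derive from four-parameter fits of percent inhibition versus concentration. The HTRF read-out (665/620 nm ratio, 337 nm excitation) followed 16 h compound exposure of HCC827 cells, 1 h lysis and overnight room-temperature incubation with the HTRF antibodies.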

[3] = tested on: EGFR DTC; experiment: Cell Degradation 3: EGFR degradation in BaF3 cells (DTC), HTRF assay
Procedure, shortened: (§1)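 BaF3 cells expressing EGFR (LTC triple mutant C797S/L858R/T790M or DTC) exposed to compounds for 16 h, 8 doses from 4-fold dilution, 0.2% DMSO. Residual EGFR quantified by HTRF in lysates (triple mutant lysate diluted 1:1); DC50 from four-parameter logistic fit.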

[4] = target: T3, EGFR LTC (Homo sapiens, UniProt P00533, C797S/L858R/T790M); experiment: Cell Degradation 3: EGFR degradation in BaF3 cells (LTC), HTRF assay
T3 construct: expressed in transfected cells; host or cells: BaF3
Procedure, shortened: as §1

T2 sequence (P00533 with tags, fused parts or gaps DEL746-750): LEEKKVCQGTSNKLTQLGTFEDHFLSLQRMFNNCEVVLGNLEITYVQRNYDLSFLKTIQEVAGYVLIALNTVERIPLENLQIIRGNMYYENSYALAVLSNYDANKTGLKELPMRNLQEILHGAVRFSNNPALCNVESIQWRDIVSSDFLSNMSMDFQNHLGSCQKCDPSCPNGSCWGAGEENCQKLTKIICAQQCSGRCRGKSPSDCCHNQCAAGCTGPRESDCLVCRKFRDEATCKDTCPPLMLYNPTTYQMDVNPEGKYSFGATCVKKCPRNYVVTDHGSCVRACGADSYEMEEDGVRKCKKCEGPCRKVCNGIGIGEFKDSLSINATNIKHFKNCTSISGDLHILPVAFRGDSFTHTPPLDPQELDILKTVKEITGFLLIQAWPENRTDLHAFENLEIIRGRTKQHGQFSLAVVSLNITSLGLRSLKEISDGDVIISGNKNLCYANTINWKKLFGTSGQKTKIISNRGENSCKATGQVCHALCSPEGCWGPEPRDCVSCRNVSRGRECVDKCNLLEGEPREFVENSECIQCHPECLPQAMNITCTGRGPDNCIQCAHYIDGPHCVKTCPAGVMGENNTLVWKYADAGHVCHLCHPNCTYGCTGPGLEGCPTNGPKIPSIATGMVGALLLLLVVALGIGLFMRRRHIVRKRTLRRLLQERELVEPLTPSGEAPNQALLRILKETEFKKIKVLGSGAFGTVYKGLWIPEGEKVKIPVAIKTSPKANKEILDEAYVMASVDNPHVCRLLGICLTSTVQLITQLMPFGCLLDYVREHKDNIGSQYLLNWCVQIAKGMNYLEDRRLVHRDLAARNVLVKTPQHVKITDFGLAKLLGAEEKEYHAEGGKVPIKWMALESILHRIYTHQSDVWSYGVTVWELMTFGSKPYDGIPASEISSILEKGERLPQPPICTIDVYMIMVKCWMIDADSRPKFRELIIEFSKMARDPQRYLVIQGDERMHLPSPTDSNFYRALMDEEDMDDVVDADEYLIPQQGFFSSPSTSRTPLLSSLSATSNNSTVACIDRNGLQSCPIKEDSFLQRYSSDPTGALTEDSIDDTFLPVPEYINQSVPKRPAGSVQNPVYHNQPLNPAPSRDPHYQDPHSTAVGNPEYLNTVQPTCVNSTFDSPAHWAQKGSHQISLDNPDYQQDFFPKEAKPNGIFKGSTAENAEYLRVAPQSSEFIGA
T2 sequence (Q96SW2 whole entry partner): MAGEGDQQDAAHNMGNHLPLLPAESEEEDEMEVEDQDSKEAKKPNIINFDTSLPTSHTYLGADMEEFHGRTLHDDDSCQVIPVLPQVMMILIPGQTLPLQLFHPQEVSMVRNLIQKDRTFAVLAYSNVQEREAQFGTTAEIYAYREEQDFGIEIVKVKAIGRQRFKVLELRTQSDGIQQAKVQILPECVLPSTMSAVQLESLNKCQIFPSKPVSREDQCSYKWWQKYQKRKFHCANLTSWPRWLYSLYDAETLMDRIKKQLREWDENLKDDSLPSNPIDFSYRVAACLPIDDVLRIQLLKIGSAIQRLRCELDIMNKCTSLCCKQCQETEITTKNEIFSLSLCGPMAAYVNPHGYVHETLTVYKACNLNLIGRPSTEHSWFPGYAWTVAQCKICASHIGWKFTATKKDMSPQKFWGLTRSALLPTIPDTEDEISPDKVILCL
T3 sequence (P00533 25-1210 T790M/C797S/L858R): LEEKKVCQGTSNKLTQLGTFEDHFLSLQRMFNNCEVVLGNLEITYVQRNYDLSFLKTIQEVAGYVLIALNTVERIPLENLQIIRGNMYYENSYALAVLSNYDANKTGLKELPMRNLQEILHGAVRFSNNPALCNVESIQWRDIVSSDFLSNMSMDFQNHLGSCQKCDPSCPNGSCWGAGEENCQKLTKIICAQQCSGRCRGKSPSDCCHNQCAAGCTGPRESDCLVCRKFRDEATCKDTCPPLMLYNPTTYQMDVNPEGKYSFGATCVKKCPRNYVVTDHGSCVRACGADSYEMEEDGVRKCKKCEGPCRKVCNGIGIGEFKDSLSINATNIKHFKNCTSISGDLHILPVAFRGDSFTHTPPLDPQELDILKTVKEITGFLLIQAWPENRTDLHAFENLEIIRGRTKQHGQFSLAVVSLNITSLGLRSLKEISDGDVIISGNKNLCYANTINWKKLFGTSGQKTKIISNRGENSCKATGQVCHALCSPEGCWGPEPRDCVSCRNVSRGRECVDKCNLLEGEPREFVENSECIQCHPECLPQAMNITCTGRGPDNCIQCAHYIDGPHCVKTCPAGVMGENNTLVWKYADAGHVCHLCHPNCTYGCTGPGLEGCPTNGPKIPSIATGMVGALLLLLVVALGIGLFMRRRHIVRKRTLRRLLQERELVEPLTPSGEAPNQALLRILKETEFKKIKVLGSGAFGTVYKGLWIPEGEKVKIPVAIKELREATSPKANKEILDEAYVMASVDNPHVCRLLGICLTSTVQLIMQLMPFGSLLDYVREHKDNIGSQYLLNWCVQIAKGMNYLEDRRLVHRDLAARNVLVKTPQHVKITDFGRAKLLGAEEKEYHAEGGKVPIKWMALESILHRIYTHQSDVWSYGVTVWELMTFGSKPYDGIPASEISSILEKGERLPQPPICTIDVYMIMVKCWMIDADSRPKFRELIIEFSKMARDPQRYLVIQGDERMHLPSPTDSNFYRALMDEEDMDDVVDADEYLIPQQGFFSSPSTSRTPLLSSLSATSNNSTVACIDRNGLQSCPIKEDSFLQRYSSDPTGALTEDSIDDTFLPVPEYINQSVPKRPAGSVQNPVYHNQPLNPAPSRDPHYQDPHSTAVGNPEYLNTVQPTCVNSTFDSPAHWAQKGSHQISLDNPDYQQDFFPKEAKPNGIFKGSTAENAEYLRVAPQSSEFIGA
T1 sequence (P00533 25-1210 T790M/L858R): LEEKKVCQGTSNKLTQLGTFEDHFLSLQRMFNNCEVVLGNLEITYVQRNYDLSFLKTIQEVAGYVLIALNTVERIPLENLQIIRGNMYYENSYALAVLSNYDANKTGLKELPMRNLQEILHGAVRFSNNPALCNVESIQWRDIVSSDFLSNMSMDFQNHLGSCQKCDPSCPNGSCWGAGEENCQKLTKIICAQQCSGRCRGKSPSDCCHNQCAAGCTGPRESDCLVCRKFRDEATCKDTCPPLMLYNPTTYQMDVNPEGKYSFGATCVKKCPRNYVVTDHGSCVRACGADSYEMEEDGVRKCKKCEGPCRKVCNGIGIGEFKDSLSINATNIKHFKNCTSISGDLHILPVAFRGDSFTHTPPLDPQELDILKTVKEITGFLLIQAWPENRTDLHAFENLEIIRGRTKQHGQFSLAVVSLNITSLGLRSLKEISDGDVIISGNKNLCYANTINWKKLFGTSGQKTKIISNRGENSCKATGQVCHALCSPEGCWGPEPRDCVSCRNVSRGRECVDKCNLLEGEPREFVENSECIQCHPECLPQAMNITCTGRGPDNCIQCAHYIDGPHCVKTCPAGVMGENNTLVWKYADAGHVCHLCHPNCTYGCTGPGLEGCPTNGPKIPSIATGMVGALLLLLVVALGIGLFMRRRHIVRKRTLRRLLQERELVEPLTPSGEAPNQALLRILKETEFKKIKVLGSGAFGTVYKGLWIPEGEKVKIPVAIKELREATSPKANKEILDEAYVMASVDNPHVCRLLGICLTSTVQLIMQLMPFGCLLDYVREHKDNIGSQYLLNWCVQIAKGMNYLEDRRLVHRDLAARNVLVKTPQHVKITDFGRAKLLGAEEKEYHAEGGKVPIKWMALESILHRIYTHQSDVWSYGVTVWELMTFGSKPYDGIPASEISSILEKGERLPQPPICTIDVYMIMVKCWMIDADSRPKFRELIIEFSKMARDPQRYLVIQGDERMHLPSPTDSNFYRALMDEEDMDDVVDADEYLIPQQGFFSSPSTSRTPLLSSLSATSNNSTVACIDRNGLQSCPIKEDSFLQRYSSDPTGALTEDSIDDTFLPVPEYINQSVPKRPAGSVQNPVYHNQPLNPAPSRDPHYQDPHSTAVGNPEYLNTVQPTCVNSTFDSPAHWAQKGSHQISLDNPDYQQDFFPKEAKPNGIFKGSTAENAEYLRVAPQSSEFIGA

Row | Compound | DC50 [1] [nM] | DC50 [2] [nM] | DC50 [3] [nM] | DC50 [4] [nM]
1 | CS(=O)(=O)N1CCc2cccc(Nc3nc(Nc4ccc(N5CCC(N6CCN(CCc7ccc(C8CCC(=O)NC8=O)c(F)c7)CC6)CC5)c5c4OCC5)ncc3Cl)c21 (stereo not drawn) [Example 53, 3-(4-(2-(4-(1-(7-((5-chloro-4-((1-(methylsulfonyl)indolin-7-yl)amino)pyrimidin-2-yl)amino)-2,3-dihydrobenzofuran-4-yl)piperidin-4-yl)piperazin-1-yl)ethyl)-2-fluorophenyl)piperidine-2,6-dione] | 2.6 | 3.7 | 21.8 | 35.7
2 | CS(=O)(=O)N1CCc2cccc(Nc3nc(Nc4ccc(N5CCC(N6CCN(CCCC7CN(c8ccc9c(c8)C(=O)N(C8CCC(=O)NC8=O)C9=O)C7)CC6)CC5)c(F)c4)nc4[nH]ccc34)c21 (stereo not drawn) [Example 19, 2-(2,6-dioxopiperidin-3-yl)-5-(3-(3-(4-(1-(2-fluoro-4-((4-((1-(methylsulfonyl)indolin-7-yl)amino)-7H-pyrrolo[2,3-d]pyrimidin-2-yl)amino)phenyl)piperidin-4-yl)piperazin-1-yl)propyl)azetidin-1-yl)isoindoline-1,3-dione] | 6.03 | 10.8 | 16.7 | 24.2
3 | COc1cc(N2CCC(N3CCN(CCc4ccc(C5CCC(=O)NC5=O)cc4)CC3)CC2)c(C)cc1Nc1ncc(Br)c(Nc2cccc3c2N(S(C)(=O)=O)CC3)n1 (stereo not drawn) [Example 39, 3-(4-(2-(4-(1-(4-((5-bromo-4-((1-(methylsulfonyl)indolin-7-yl)amino)pyrimidin-2-yl)amino)-5-methoxy-2-methylphenyl)piperidin-4-yl)piperazin-1-yl)ethyl)phenyl)piperidine-2,6-dione] | 12.1 | 13.6 | 33.7 | 157
4 | COc1cc(N2CCC(N3CCN(CCC4CCN(c5ccc(C6CCC(=O)NC6=O)cc5)CC4)CC3)CC2)ccc1Nc1ncc(Cl)c(Nc2cccc3c2N(S(C)(=O)=O)CC3)n1 (stereo not drawn) [Example 35, 3-(4-(4-(2-(4-(1-(4-((5-chloro-4-((1-(methylsulfonyl)indolin-7-yl)amino)pyrimidin-2-yl)amino)-3-methoxyphenyl)piperidin-4-yl)piperazin-1-yl)ethyl)piperidin-1-yl)phenyl)piperidine-2,6-dione] | 7.2 | 8.4 | 48.1 | 203
5 | CS(=O)(=O)N1CCc2cccc(Nc3nc(Nc4ccc(N5CCC(N6CCN(CCc7ccc(C8CCC(=O)NC8=O)c(F)c7)CC6)CC5)c(F)c4)nc4[nH]ccc34)c21 (stereo not drawn) [Example 3, 3-(2-fluoro-4-(2-(4-(1-(2-fluoro-4-((4-((1-(methylsulfonyl)indolin-7-yl)amino)-7H-pyrrolo[2,3-d]pyrimidin-2-yl)amino)phenyl)piperidin-4-yl)piperazin-1-yl)ethyl)phenyl)piperidine-2,6-dione] | 9.5 | 19.8 | 11.6 | 19.9
6 | CS(=O)(=O)N1CCc2cccc(Nc3nc(Nc4ccc(N5CCC(N6CCN(CCC7CCN(c8ccc(C9CCC(=O)NC9=O)cc8)CC7)CC6)CC5)c(F)c4)nc4[nH]ccc34)c21 (stereo not drawn) [Example 8, 3-(4-(4-(2-(4-(1-(2-fluoro-4-((4-((1-(methylsulfonyl)indolin-7-yl)amino)-7H-pyrrolo[2,3-d]pyrimidin-2-yl)amino)phenyl)piperidin-4-yl)piperazin-1-yl)ethyl)piperidin-1-yl)phenyl)piperidine-2,6-dione] | 9.1 | 12.7 | 13.4 | 8.4

Second part, the compound after the results:

Row | DC50 [1] [nM] | DC50 [2] [nM] | DC50 [3] [nM] | DC50 [4] [nM] | Compound
7 | 4.4 | 22.1 | 3 | 4.7 | CS(=O)(=O)N1CCc2cccc(Nc3nc(Nc4ccc(N5CCC(N6CCN(C(=O)[C@@H]7CCN(c8ccc9c(c8)C(=O)N(C8CCC(=O)NC8=O)C9=O)C7)CC6)CC5)c(F)c4)nc4[nH]ccc34)c21 (stereo partly drawn) [Example 62, 2-(2,6-dioxopiperidin-3-yl)-5-((R)-3-(4-(1-(2-fluoro-4-((4-((1-(methylsulfonyl)indolin-7-yl)amino)-7H-pyrrolo[2,3-d]pyrimidin-2-yl)amino)phenyl)piperidin-4-yl)piperazine-1-carbonyl)pyrrolidin-1-yl)isoindoline-1,3-dione]
8 | 2.3 | 1.7 | 1.8 | 2.7 | CS(=O)(=O)N1CCc2cccc(Nc3nc(Nc4ccc(N5CCC(N6CCN(C(=O)C7CN(c8ccc9c(c8)C(=O)N(C8CCC(=O)NC8=O)C9=O)C7)CC6)CC5)c(F)c4)ncc3Cl)c21 (stereo not drawn) [Example 77, 5-(3-(4-(1-(4-((5-chloro-4-((1-(methylsulfonyl)indolin-7-yl)amino)pyrimidin-2-yl)amino)-2-fluorophenyl)piperidin-4-yl)piperazine-1-carbonyl)azetidin-1-yl)-2-(2,6-dioxopiperidin-3-yl)isoindoline-1,3-dione]
9 | 8.9 | 8.9 | 120 | 443 | CS(=O)(=O)N1CCc2cccc(Nc3nc(Nc4ccc(N5CCC(N6CCN(CCC7CCN(c8ccc(C9CCC(=O)NC9=O)cc8)CC7)CC6)CC5)c5c4OCC5)ncc3Cl)c21 (stereo not drawn) [Example 54, 3-(4-(4-(2-(4-(1-(7-((5-chloro-4-((1-(methylsulfonyl)indolin-7-yl)amino)pyrimidin-2-yl)amino)-2,3-dihydrobenzofuran-4-yl)piperidin-4-yl)piperazin-1-yl)ethyl)piperidin-1-yl)phenyl)piperidine-2,6-dione]
10 | 3.5 | 3.1 | 2.4 | 16.5 | COc1cc(N2CCC(N3CCN(C(=O)[C@H]4CCN(c5ccc6c(c5)C(=O)N(C5CCC(=O)NC5=O)C6=O)C4)CC3)CC2)ccc1Nc1ncc(Cl)c(Nc2cccc3c2N(S(C)(=O)=O)CC3)n1 (stereo partly drawn) [Example 87, 5-((S)-3-(4-(1-(4-((5-chloro-4-((1-(methylsulfonyl)indolin-7-yl)amino)pyrimidin-2-yl)amino)-3-methoxyphenyl)piperidin-4-yl)piperazine-1-carbonyl)pyrrolidin-1-yl)-2-(26-dioxopiperidin-3-yl)isoindoline-1,3-dione]
11 | 3 | 20 | 49 | 40 | COc1cc(N2CCC(N3CCN(CCc4cc(F)c(C5CCC(=O)NC5=O)c(F)c4)CC3)CC2)c(C)cc1Nc1nc(Nc2cccc3c2N(S(C)(=O)=O)CC3)c2cc[nH]c2n1 (stereo not drawn) [Example 163, 3-(2,6-difluoro-4-(2-(4-(1-(5-methoxy-2-methyl-4-((4-((1-(methylsulfonyl)indolin-7-yl)amino)-7H-pyrrolo[2,3-d]pyrimidin-2-yl)amino)phenyl)piperidin-4-yl)piperazin-1-yl)ethyl)phenyl)piperidine-2,6-dione]
12 | 3.5 | 6.4 | 14.9 | 39.9 | COc1cc(N2CCC(N3CCN(CCC4CCN(c5ccc6c(c5)C(=O)N(C5CCC(=O)NC5=O)C6=O)CC4)CC3)CC2)c(C)cc1Nc1ncc(Br)c(Nc2cccc3c2N(S(C)(=O)=O)CC3)n1 (stereo not drawn) [Example 91, 5-(4-(2-(4-(1-(4-((5-bromo-4-((1-(methylsulfonyl)indolin-7-yl)amino)pyrimidin-2-yl)amino)-5-methoxy-2-methylphenyl)piperidin-4-yl)piperazin-1-yl)ethyl)piperidin-1-yl)-2-(2,6-dioxopiperidin-3-yl)isoindoline-1,3-dione]
13 | 3.4 | 3.3 | 4.8 | 8 | CS(=O)(=O)N1CCc2cccc(Nc3nc(Nc4ccc(N5CCC(N6CCN(CC7CN(c8ccc9c(c8)C(=O)N(C8CCC(=O)NC8=O)C9=O)C7)CC6)CC5)c(F)c4)ncc3Cl)c21 (stereo not drawn) [Example 76, 5-(3-((4-(1-(4-((5-chloro-4-((1-(methylsulfonyl)indolin-7-yl)amino)pyrimidin-2-yl)amino)-2-fluorophenyl)piperidin-4-yl)piperazin-1-yl)methyl)azetidin-1-yl)-2-(2,6-dioxopiperidin-3-yl)isoindoline-1,3-dione]
14 | 13.5 | 5.8 | 23.6 | 233 | COc1cc(N2CCN(CCC3CCN(c4ccc(C5CCC(=O)NC5=O)cc4)CC3)CC2)ccc1Nc1ncc(Cl)c(Nc2cccc3c2N(S(C)(=O)=O)CC3)n1 (stereo not drawn) [Example 56, 3-(4-(4-(2-(4-(4-((5-chloro-4-((1-(methylsulfonyl)indolin-7-yl)amino)pyrimidin-2-yl)amino)-3-methoxyphenyl)piperazin-1-yl)ethyl)piperidin-1-yl)phenyl)piperidine-2,6-dione]
15 | 16 | 6 | 11 | 13 | COc1cc(N2CCC(N3CCN(C[C@@H]4CCN(c5ccc6c(c5)CN(C5CCC(=O)NC5=O)C6=O)C4)CC3)CC2)c(C)cc1Nc1ncc(Br)c(Nc2cccc3c2N(S(C)(=O)=O)CC3)n1 (stereo partly drawn) [Example 154, 3-(5-((S)-3-((4-(1-(4-((5-bromo-4-((1-(methylsulfonyl)indolin-7-yl)amino)pyrimidin-2-yl)amino)-5-methoxy-2-methylphenyl)piperidin-4-yl)piperazin-1-yl)methyl)pyrrolidin-1-yl)-1-oxoisoindolin-2-yl)piperidine-2,6-dione]
